From a melting point compilation (Tetko et al.; mined from patent text by program, amines drawn as free bases though some values may be those of a salt)

| melting point | Structure (SMILES) |
| --- | --- |
| 284 to 285 °C | O=C(O)C1=Cc2cc(-c3ccc(OC(F)(F)F)cc3)ccc2S(=O)(=O)CC1 |
| 88 to 92 °C | C=CC(C)c1cc(C)c2c(c1)C(=O)CC2 (configuration not stated) |
| 186 to 188 °C | CCc1cccc(CC)c1C(=O)Nc1nnc(C(C)(CC)CC)s1 |
| 212 to 215 °C | O=C1NCCc2[nH]c3ccccc3c21 |
| 115 to 119 °C | N[C@@H](Cc1c[nH]cn1)C(=O)N(N)C(=O)C(CC(=O)N1CCOCC1)Cc1cccc2ccccc12 (some centres not stated) |
| 115 to 117 °C | CC1(C)CC(=NO)c2cc(Br)ccc21 |
| 98 to 98.6 °C | Nc1cccc(Oc2cc(Oc3cccc(N)c3)cc(C(F)(F)F)c2)c1 |
| 131 to 132 °C | CCCCN(CCCC)C(=O)CN1CC(c2ccc3c(c2)OCO3)C(C(=O)O)C1c1ccncc1 (configuration not stated) |
| 108 to 109 °C | CCCCCCCCCCSc1ccc(C(=O)O)cc1 |
| 185 to 186 °C | Oc1cc(C(F)CBr)c2oc(-c3ccc(O)c(F)c3)nc2c1 (configuration not stated) |
| 67 to 69 °C | Fc1cccc(F)c1-c1cncnc1 |
| 185 to 186 °C | CC(=O)COc1c(-c2ccccc2)c(=O)[nH]c2cc(Cl)ccc12 |
| 186 to 189 °C | Cc1nc2c(N)c(C(=O)C3OC3c3ccsc3)ccn2c1C (configuration not stated) |
| 49 to 53 °C | CCC[C@](CCO)(CCc1ccccc1)OCOc1ccc(-c2ccccc2)cc1 |
| 147 to 149 °C | CCCN1C(=O)COc2ccc(N3C(=O)C(C)=C(C)C3=O)cc21 |
| 104 °C | COC(=O)C=Cc1ccc(OCC2CCCCC2)cc1 |
| 198 °C | Cc1ccc(F)c(-c2cncc(OC3SCC(O)C(O)C3O)c2)c1 (configuration not stated) |
| 102 to 103 °C | CC(C(=O)O)c1ccc(-n2cc(Cl)cn2)c(Cl)c1 (configuration not stated) |
| 214 to 215 °C | O=C(O)CCn1cc(Cc2cccnc2)c2cc(NS(=O)(=O)c3ccc(F)cc3)ccc21 |
| 130 °C | O=C1C(Cc2ccccc2)N(c2ccc(Oc3ccccc3)cc2)C(=S)N1c1ccccc1 (configuration not stated) |
| 229 to 230 °C | NS(=O)(=O)c1ccc(C2CCNCC2)cc1 |
| 184 °C | CNS(=O)(=O)c1c(C)n(C)c2cc(F)ccc2c1=O |
| 154 to 156 °C | N#Cc1ccc(C=CCCC(=O)O)cc1 |

| melting point | Structure (SMILES) |
| --- | --- |
| 158 °C | COc1ccccc1OCC(O)CN1CCCC(Cn2c(=O)[nH]c3ccccc32)C1 (configuration not stated) |
| 105 °C | CCOC(=O)Cc1csc(N=C2SC[C@@H]3Cc4ccccc4CN23)n1 |
| 157 to 159 °C | CC(C)Oc1ccc2c(c1)N(C)C(=O)N(c1ccc(Cl)cc1)S2(=O)=O |
| > 260 °C | CCc1nccn1-c1ccccc1C(=O)Nc1ccc(C(=O)N2CCC(F)(F)/C(=C\C(=O)NC3CC3)c3ccccc32)cc1 |
| 143 to 148 °C | CC(=O)OC1CSC(Sc2ccc(C(=O)C(F)(F)F)cc2)C(OC(C)=O)C1OC(C)=O (configuration not stated) |
| 181 to 184 °C | O=c1ccccn1C1c2cc(S(=O)c3ccccc3)ccc2OCCC1O (configuration not stated) |
| 114 to 116 °C | C=CCNC(=O)n1nc(-c2ccccc2)cc1NC(=O)CC(=O)C(F)(F)F |
| 188 to 191 °C | O=C(NO)c1cc(Oc2ccc(C(F)(F)F)cc2Cl)ccc1O |
| 78 to 80 °C | CN(C)c1nn(C(=O)Cl)c(=O)n1C |
| 157 to 158 °C | Cc1oc(-c2ccccc2)nc1COc1ccc(COc2cccc(CCC(=O)O)c2)cc1 |
| 102 to 105 °C | O=C(CCCC(=O)N1CCC[C@H]1C(=O)O)c1ccccc1 |
| 166 to 167 °C | COC(=O)c1c(C(=O)OC)c(-c2ccc(OC)cc2)c2c3c(ccc2c1OC)OCO3 |
| 194 °C | c1ccc(-c2nnc3c4c(c(OCc5ccccn5)nn23)CCCC4)cc1 |
| 200 °C | OC1CSC(Oc2ccc(-c3ccco3)cc2)C(O)C1O (configuration not stated) |
| 162 to 164 °C | CC(C)c1c(/C=C/C=O)c(-c2ccccc2)c2c3ccccc3cnn12 |
| > 340 °C | Nc1c(Nc2cccc(-c3ccncc3)n2)c(=O)c1=O |
| 179 to 181 °C | Cc1ccc(CNC(=O)c2ccc3n2Cc2ccccc2N(C(=O)c2ccc(-c4ccccc4C)c(C)c2)C3)cc1 |
| 103 to 106 °C | CCCC(O)c1cccc(NC(=O)OCc2ccccc2)c1 (configuration not stated) |
| 239 to 241 °C | Cn1nc(N)c2sc3c(Cl)cccc3c21 |
| 132 °C | CCOC(=O)NN=C(c1cccnc1)C1COCOC1 |
| 74.5 to 76 °C | CC(C)(CCCCCCC(=O)CCCCCCC(C)(C)C(=O)O)C(=O)O |
| 172 to 175 °C | CCc1oc2ccccc2c1C(=O)c1ccc(OCC(=O)O)cc1 |
| 70 °C | O=S1(=O)CCCN1CCc1ccncc1 |

| melting point | Structure (SMILES) |
| --- | --- |
| 301 to 304 °C | CS(=O)(=O)c1ccc2cc(C(=O)O)ccc2c1 |
| 61 to 75 °C | O=C1NC2CCC(=O)N2[C@H]1CO (some centres not stated) |
| 184 °C | COc1cc(-c2ccc(N)nn2)ccc1OC(F)F |
| 204 °C | O=C(CN1CCC(Cc2ccc(F)cc2)CC1)Nc1ccc2[nH]cnc2c1 |
| 104 to 105 °C | O=C(C(=O)c1cccc(F)c1)c1cccc(F)c1 |
| 37 to 39 °C | CC(O)COc1ccc(Oc2cccc(F)c2)cc1 (configuration not stated) |
| 159 to 160 °C | CCCCNC(=O)NCCCn1c(CCOC)nc2c(N)nc3ccccc3c21 |
| > 260 °C | O=C1c2ccccc2C(=O)c2sc(-c3cccc(F)c3)nc21 |
| 81 to 82 °C | CCCCNC(=O)[C@@H](C[C@H](O)[C@@H](N)CC1CCCCCC1)C(C)C |
| 179 to 181 °C | CCCc1nc2c(N)nc3cc(OCCCNC(=O)C(C)C)ccc3c2n1CC(C)C |
| 158 to 160 °C | CS(=O)(=O)N1CCC(NC(=O)N(CCCN2CCC(Cc3ccccc3)CC2)c2ccccc2)CC1 |
| 70 °C | CN1C(=O)C(c2ccc(OC(F)F)cc2)(c2cccc(CCCC(F)(F)F)c2)N=C1N (configuration not stated) |
| 180 to 182 °C | CN1CCN(c2ccc(Nc3nc(N)c(C(=O)c4c(Cl)cc(Br)c(N)c4Cl)s3)cc2)CC1 |
| 154 to 155 °C | COCOc1cc(Cl)ccc1-c1cc(-c2cccc([N+](=O)[O-])c2)c(C#N)c(NC(=O)c2ccco2)n1 |
| 139 to 141 °C | CCN(CC)CCOc1ccc(Nc2ncc3c(n2)N(CC)C(=O)N(c2cc(OC)cc(OC)c2)C3)cc1 |
| 122 to 123 °C | Cc1cc(CCCCCOc2c(Cl)cc(-c3nnn[nH]3)cc2Cl)on1 |
| 146 to 147 °C | CCc1c(-c2ccc(O)cc2)c2cc(COCCCN(C)C)c3cccc1n32 |
| 196 to 198 °C | Cc1c(C#N)c(-c2ccc(C#N)cc2)c(C)n1Cc1ccc(Cl)c(C(O)C(F)(F)F)c1 (configuration not stated) |
| 78 to 79 °C | COc1ccc(COCc2nc(C(C)C)c(I)[nH]2)cc1 |
| 170 to 172 °C | COc1ccc(C(N)=Nc2ccc(C(=O)O)cc2)cc1C(C)(C)C |
| 234 to 238 °C | CNC(=O)c1ccc(C=CC(=O)Nc2cccc(-c3ccc(C)c(COc4cccc5ccc(C)nc45)c3C)c2)cc1 |
| 91 to 93 °C | O=C(NCCNCC(O)COc1ccc(OCCOCC2CCC2)cc1)N1CCOCC1 (configuration not stated) |

| Structure (SMILES) | melting point |
| --- | --- |
| COOc1ccc(S(=O)(=O)c2cnc(C)nc2Cc2c(C)cc(C)cc2C)cc1 | 150 to 152 °C |
| N#Cc1nn(-c2c(Cl)cc(C(F)(F)F)cc2Cl)c(N)c1-c1cccs1 | 206 to 207 °C |
| Cc1nc2c3c(c(C(=O)NN4CC4)cc2n1C)CCC(c1ccccc1)N3 (configuration not stated) | 192 to 193 °C |
| OC1(c2ccc3[nH]cc(CCN4CCCC4)c3c2)CCCCC1 | 66 to 78 °C |
